# Columns and labels:
# [1] = system: B. cf. gunnisoniana ovules; test: 5-azaC pre-culture soak and pistil culture, Taraxacum-type to Antennaria-type diplospory; type: cell-based; conditions: 500 μmol L−1 5-azaC (highest concentration)
# Procedure: FIG. 38 Frequencies of triploid B. cf. gunnisoniana ovules that were initiating Taraxacum-type diplospory, Polygonum-type sexual development, Antennaria-type diplospory, or Hieracium-type apospory at the end of pistil culture treatment as affected by a 5 min pre-culture soak in solutions containing 5-azacytidine (5-azaC). Pistils were initiated in culture at the 1-I stage. Numbers of ovules per level of 5-azaC averaged 487 and ranged from 288-590.
# FIGS. 39A-39C Ovules from pistils of B. gunnisoniana treated at the pre-MMC stage with 5-azaC as a pretreatment solution and then cultured on 5-azaC-containing tissue culture media for 48 h. (FIGS. 39A, 39B) Antennaria-type (A-type) MMC vacuolation. (FIG. 39C) 2-nucleate A-type embryo sac arising directly from an MMC. scale bar: 20 μm.
# Thus, if methylation in sexual plants can be prevented, or if DNA can be demethylated, the apomictic pathway might surface as the default pathway. 5-azaC, an inhibitor of DNA-cytosine methyltransferases, produces upon DNA replication hypomethylated DNA. It is a chemical analogue of cytosine that is incorporated into DNA by competition with cytosine during DNA synthesis. In 5-azaC, the carbon-5 of the cytosine ring, which is essential to DNA methyltransferase function, is replaced by nitrogen, and this causes failure of methylation at each 5-azaC site(99). […]
# [2] = system: Arabidopsis ovules; test: Pistil culture experiments with 5-azaC, BR (epiBL), DTBA, H2O2 and sugars, meiosis to apomeiosis; type: cell-based, Arabidopsis thaliana
# Description: (§1) To address redox instability, pistils were exposed to the antioxidant DTBA, an antioxidant that protects thiol groups in proteins from oxidization. To address bioenergetic stress, pistils were exposed to sugars. Glucose signaling is one of the most ancient and central signaling pathways in animals and plants and is involved in gene expression, primary and secondary metabolism, and regulation of growth and development (98). In Arabidopsis, rates of glycolysis and mitochondrial bioenergetics are sensed by TOR, which then control root meristem activation (18). If sufficient sugar is supplied, TOR should be activated. Active TOR protects BZR1 and other important BR-regulated enzymes from degradation, and this leads to plant growth (25). Factorial experiments were designed to test the effects of sucrose, glucose, epiBL, DTBA and 5-azaC on apomixis induction. These were designed for each of three sexual species, B. stricta, arabidopsis and cowpea. The experiments were performed and ratios of apomeiosis to meiosis were documented.
# Two factorial experiments were conducted using immature arabidopsis pistils. In the first experiment, no 5-azaC, 5-azaC in the pretreatment only, or 5-azaC in both the pretreatment and the tissue culture medium were tested.
# Cytological Analyses. Arabidopsis, Drummond's rockcress and cowpea floral buds were fixed in FAA (v/v: 3.7% formaldehyde, 5% acetic acid, 50% ethanol) for 48 h and cleared in 2:1 benzyl benzoate dibutyl phthalate (BBDP) (80): 1) 70% EtOH, 30 min; 95% EtOH, ≥4 h (2×); 95% EtOH:BBDP (2:1), 2 h; 95% EtOH:BBDP (1:2), 4 h; BBDP, 4 h; BBDP, overnight. Cleared pistils were mounted (up to 16 per slide) and measured from the pedicel base to the top of the stigma. Ovule development stages were studied using a BX53 microscope equipped with differential interference contrast optics and a MicroFire 599809 camera (Olympus, Center Valley, Pa., USA). For chromosome staining, pistils were soaked in 95% ethanol that contained 0.1 mg L^−1 4′,6-diamidino-2-phenylindole (DAPI). Callose was stained by soaking DAPI stained pistils in aqueous aniline blue (Millipore Sigma, Darmstadt, Germany) (124). DAPI fluorescence was detected with a Zeiss LSM 510 confocal microscope with excitation at 408 nm, dichroic reflector at HFT488 nm and detection at 450-650 nm. Callose was distinguished from DAPI by detection at 550-650 nm.
# Presence of the following ovule characteristics were recorded: MMCs, Antennaria type diplosporous 1-2 nucleate ES, sexual or Taraxacum type diplosporous dyads, sexual tetrads, sexual or Taraxacum type diplosporous 1-2 nucleate ES, AI and AES. Developmental stages for the majority of ovules per pistil were recorded, and pistil lengths for the following stages (125) were recorded: 1-II, ovule meristems protruding from placentae (precedes MMC formation); 2-IV, meiosis; 3-III, vacuole in immature ES beginning to appear; 4-VI, nuclear divisions in endosperm underway. To determine average timing of meiosis onset, pistils primarily containing premeiotic (2-III) ovules were located under low light conditions 1 h before the lights came on in the morning. Corresponding sepals were marked with a small point permanent marker. Pistils were then randomly harvested for analysis when the lights came on and 3 h thereafter.
# Pistils were aseptically excised, but not disinfested, at the early pre-MMC to MMC stages and incubated in vitro. The basal culture medium for arabidopsis and Drummond's rockcress was MS (126) (Caisson Laboratories, Inc., Smithfield, UT USA) with 20 g L^−1 sucrose or glucose and solidified with 1.45 g L^−1 Phytogel (MilliporeSigma).
# [3] = system: cowpea (Vigna unguiculata) ovules; test: Pistil culture with epiBL, DTBA, epiBL plus DTBA and 5-azaC; type: cell-based; conditions: compound in pretreatment and culture medium; 24 of 34 ovules in total
# Description: as §1, with “These were designed for each of three sexual species, B. stricta, arabidopsis and cowpea. The experiments were performed and ratios of apomeiosis to meiosis were documented.” left out
# Cytological Analyses. […] Cleared pistils were mounted (up to 16 per slide) and measured from the pedicel base to the top of the stigma. […] DAPI fluorescence was detected with a Zeiss LSM 510 confocal microscope with excitation at 408 nm, dichroic reflector at HFT488 nm and detection at 450-650 nm. […]
# Presence of the following ovule characteristics were recorded: MMCs, Antennaria type diplosporous 1-2 nucleate ES, sexual or Taraxacum type diplosporous dyads, sexual tetrads, sexual or Taraxacum type diplosporous 1-2 nucleate ES, AI and AES. […]
# [4] = system: B. cf. gunnisoniana ovules; conditions: pre-MMC staged pistils demethylated with 5-azaC; cited from earlier work
# [5] = system: B. cf. gunnisoniana ovules; test: Pistil culture with BR biosynthesis inhibitor BRZ, H2O2, or both; type: cell-based; conditions: for shift from apomeiosis (dyad formation) to meiosis (tetrad formation) vs controls: BRZ alone (1.0 μmol), H2O2 alone (500 μmol), or combined
# Procedure: Pistils were cultured at the 2-IV stage.
# Pistils were cultured at the […].
# By a mechanism not yet elucidated (25), TOR stimulates the production of brassinosteroids (BR), which are plant steroids that regulate growth, including many growth and development functions of ovules (25). By dephosphorylation, BR activates BRASSINAZOLE-RESISTANT 1 (BZR1), which is a major BR-regulated transcription factor that targets ca. 2000 genes. Thus, to determine if BR functions downstream of TOR in the apomeiosis meiosis switch, we treated sets of B. cf. gunnisoniana pistils with the BR biosynthesis inhibitor brassinozole (BRZ). Pistils were collected during the 2-III and 2-IV stages.
# To determine if apomixis to sex switching by H2O2 involves pathways independent of BR, we compared three treatments to controls, BRZ alone (1.0 μmol), H2O2 alone (500 μmol), and BRZ and H2O2 combined (FIG. 37).
# [6] = system: B. stricta (Drummond's rockcress) ovules; test: Pistil culture factorial experiment with sucrose, glucose, epiBL, DTBA and 5-azaC; type: cell-based, Boechera stricta
# Description: as §1
# Both the carbohydrate variable and the other components variable were highly significant (P<0.001). Additionally, three ovules from the sucrose plus epiBL treatment (epiBL in the pretreatment and in the medium) had formed aposporous embryo sacs (AES). Also, two ovules, one from the sucrose-epiBL-epiBL treatment and one from the glucose-DTBA-DTBA treatment, had formed Antennaria-type diplosporous embryo sacs (FIGS. 48A-48H).
# Cytological Analyses. Arabidopsis, Drummond's rockcress and cowpea floral buds were fixed in FAA (v/v: 3.7% formaldehyde, 5% acetic acid, 50% ethanol) for 48 h and cleared in 2:1 benzyl benzoate dibutyl phthalate (BBDP) (80): 1) 70% EtOH, 30 min; 95% EtOH, ≥4 h (2×); 95% EtOH:BBDP (2:1), 2 h; 95% EtOH:BBDP (1:2), 4 h; BBDP, 4 h; BBDP, overnight. Cleared pistils were mounted (up to 16 per slide) and measured from the pedicel base to the top of the stigma. […] DAPI fluorescence was detected with a Zeiss LSM 510 confocal microscope with excitation at 408 nm, dichroic reflector at HFT488 nm and detection at 450-650 nm. […]
# Presence of the following ovule characteristics were recorded: MMCs, Antennaria type diplosporous 1-2 nucleate ES, sexual or Taraxacum type diplosporous dyads, sexual tetrads, sexual or Taraxacum type diplosporous 1-2 nucleate ES, AI and AES. Developmental stages for the majority of ovules per pistil were recorded, and pistil lengths for the following stages (125) were recorded: 1-II, ovule meristems protruding from placentae (precedes MMC formation); 2-IV, meiosis; 3-III, vacuole in immature ES beginning to appear; 4-VI, nuclear divisions in endosperm underway. […]
# [7] = system: Arabidopsis embryo sacs; test: Induction of parthenogenesis and autonomous endosperm formation in pistils; type: cell-based; conditions: 0.1 μM DTBA on 2% glucose medium for 7 d
# Procedure: Scale bars: 50 μm (FIG. 51A), 20 μm (FIGS. 51B-51E).
# FIG. 52 Parthenogenesis in putatively diploid Arabidopsis embryo sacs induced by treatment of pistils in emasculated flowers with 2 μM BR or 50 mM glucose. To prevent fertilization, stigmas of pistils were clipped while anthers were immature. These pistils were also treated premeiotically with BR and glucose.
# Functional apomixis requires not only apomeiosis but also parthenogenesis and, in plants, endosperm formation.
# [8] = system: B. cf. gunnisoniana ovules
# Description: (§2) Ovules were scored based on germline development. The following conditions were quantified: i) pre-meiotic megaspore mother cell (MMC), ii) meiotic or diplosporous dyad, iii) sexual tetrad of megaspores, iv) enlarged functional megaspore (FM) with three degenerating megaspores (sexually derived), v) early-stage 1 or 2-nucleate embryo sac with three degenerating megaspore remnants visible, vi) enlarged functional megaspore (FM) with only one degenerating megaspore (derived by Taraxacum-type diplospory), vii) early-stage 1 or 2-nucleate embryo sac with only one degenerating megaspore remnant (derived by Taraxacum-type diplospory), viii) early-stage 1 or 2-nucleate embryo sac with no degenerating megaspores present (derived by Antennaria-type diplospory), ix) presence of one or more enlarged non-vacuolate nucellar cells (aposporous initial, AI) that equal or surpass the size of the meiocyte (meiotically active MMC, dyad or early-stage tetrad), x) enlarged nucellar cell with one or more distinct vacuoles and 1-2 nuclei (early-stage aposporous embryo sac, AES). Because of increased uncertainties, the origins of embryo sacs (sexual, diplosporous or aposporous) were not reported beyond the 2-nucleate stage. Pistil length and the developmental stage of the majority of scorable ovules in the pistil were recorded for each pistil.
# (§3) To study the effects of short-term drought on converting apomictic development to sexual development, pistils of apomictic B. retrofracta×stricta, B. cf. gunnisoniana and B. lignifera were excised and cultured at pre-apomeiotic stages of ovule development.
# (§4) TARGET OF RAPAMYCIN (TOR) is a major regulator of cell energetics that is highly-conserved among eukaryotes. This serine/threonine protein kinase activates or inactivates enzymes by its serine-threonine phosphorylation function(18). As a regulator of bioenergetics, TOR is inactivated by ROS, and its inactivation suppresses growth.
# [9] = system: B. lignifera ovules; conditions: 50 and/or 100 mmol L−1 H2O2, 5 min pretreatment of pistils
# Description: as §2, §3, §4
# [10] = system: B. retrofracta×stricta ovules; conditions: 50 and/or 100 mmol L−1 H2O2, 5 min pretreatment of pistils
# Description: as §2, §3, §4
# [11] = system: apomictic Boechera pistils; conditions: H2O2 applications shortly before apomeiosis; cited from earlier work
# [12] = early MMC staged pistils soaked in DTBA 60 min, cultured on DTBA medium 4 d
# [13] = 7 min pretreatment in dilute H2O2
structure (smiles),measurement,setting,value
"Nc1ncn([C@@H]2O[C@H](CO)[C@@H](O)[C@H]2O)c(=O)n1 [5-azaC, 5-azacytidine]",ovules with induced Antennaria-type diplospory,[1],10%
same,Antennaria type diplospory,"[2]; 5-azaC soak, then 5-azaC or BR medium (5/5, 5/B)",occurred in some ovules
same,ovules with meiosis replaced by Antennaria-type diplosporous embryo sac formation,"[2]; first factorial experiment, 5-azaC in pretreatment and tissue culture media",6%
same,onset of aposporous embryo sac formation,"[2]; first factorial experiment, 5-azaC in pretreatment only or pretreatment and medium",effectively induced onset of aposporous embryo sac formation from nucellar cells
same,treated ovules that developed apomeiotically,"[2]; pre-MMC pistils soaked in 5-azaC 60 min, cultured on control medium or media with 5-azaC, BR, or 5-azaC plus BR and DTBA",Greater than 90%
same,ovules with Antennaria-type diplospory,"[2]; second factorial experiment, 5-azaC as pretreatment and in culture medium",26%
same,"ovules that initiated apomixis (AES, Taraxacum-type and Antennaria-type diplospory)","[2]; second factorial experiment, 5-azaC-treated",90%
same,number of ovules that initiated Antennaria-type diplospory,[3],Nine
same,ovules switched from Taraxacum-type to Antennaria-type diplospory,[4],10%
"CC(O)(c1ccccc1)C(Cc1ccc(Cl)cc1)n1cncn1 (stereo not shown) [BRZ, brassinazole]",shift from apomeiosis (dyad formation) to meiosis (tetrad formation) vs controls,[5],highly significant (p<0.001) shift from apomeiosis (dyad formation) to meiosis (tetrad formation)
same,shift of reproductive mode by BR synthesis inhibition,[5]; pistils cultured at the 2-IV stage,significant shift (P<0.05) from apomeiosis to meiosis and from apoptosis to apospory
"Cl.N[C@H](CS)CCS [DTBA, (S)-2-aminobutane-1,4-dithiol hydrochloride]",ovules with 1st division meiotic restitution (Taraxacum-type diplosporous apomeiosis),[2]; [12],40%
same,ovules with megaspores displaced by one or more AES,[2]; [12],18%
same,number of ovules that formed Antennaria-type diplosporous embryo sacs,[6]; glucose-DTBA-DTBA treatment,one
same,number of ovules that initiated Antennaria-type diplospory,[3],8 ovules
same,parthenogenetic embryo formation,[7],Parthenogenetic embryos
"OO [H2O2, hydrogen peroxide]",switch from apomeiosis to meiosis,"[8]; 50 and/or 100 mmol L−1 H2O2, 5 min pretreatment of pistils",effectively switched apomeiosis to meiosis
same,"replacement of surviving megaspores of tetrads by aposporous embryo sacs (apospory), ovules",[8]; H2O2 treatments,30%
same,switch from apomeiosis to meiosis,[9],effectively switched apomeiosis to meiosis
same,switch from apomeiosis to meiosis,[10],effectively switched apomeiosis to meiosis
same,shift from apomeiosis (dyad formation) to meiosis (tetrad formation) vs controls,[5],highly significant (p<0.001) shift from apomeiosis (dyad formation) to meiosis (tetrad formation)
same,Taraxacum-type diplosporous ES formation,[2]; [13],absent
same,ovules with surviving megaspores replaced by AES,[2]; [13],13%
same,shift from apomeiosis to meiosis,[11],high frequency shifts from Taraxacum-type diplosporous apomeiosis to normal meiosis
OC[C@H]1O[C@@](CO)(O[C@H]2O[C@H](CO)[C@@H](O)[C@H](O)[C@H]2O)[C@@H](O)[C@@H]1O [sucrose],meiosis termination followed by Taraxacum and Hieracium type ES formation,[6]; glucose instead of sucrose in medium,26 of 164
